Measurements reported in EP3238720A1, “ANTI-METHANOGENIC COMPOSITIONS AND USES THEREOF” (DSM IP Assets B.V., priority 2016, dated 2017).
Like-named read-outs stand apart in the source and are kept apart here.

Experiments:
Methanomicrobium mobile = test: Growth/methane production of methanogen cultures; type: cell-based; conditions: after 2 days, maintained over 12 days
Protocol: (§1) The methanogens outlined in table 3 were grown in 5 mL of the respective culture medium at 37°C in 15-mL Hungate tubes sealed with butyl rubber septum and aluminum seals. The 8 mL gas phase was 80% H2/20% CO2 at 2 x 10^5 Pa pressure. In the case of M. stadtmanae and M. barkeri H2 and methanol (100 mM) was the energy source. Methanogens growth was followed by CH4 production using a flame ionization-detector GC (0.5 ml of gas from headspace, manual injection in the GC (HP Hewlett 5890, Packard Series II, Waldbronn, Germany) using a 1 mL Sample-Lock® syringe (Hamilton, Nevada, USA). The concentration of CH4 was determined using a standard curve generated by injecting different volumes of 99.9 % pure CH4 prior to and after the injection of samples. Three consecutive 5 mL batches of incubations were conducted. In each batch the following treatments were used in triplicate: (i) blanks, only media; (ii) controls, cultures in the absence of inhibitor; (iii) 3-NOP added to a final concentration of 0.5 µM, 5 µM, 50 µM, 100 µM, 250 µM and 500 µM. 3-NOP was added on day 2 after culture inoculation with 0.5 mL of an actively growing culture. The growth was measured over 12 days every 2 days coinciding with new pressurization of headspace to 2 bar with 80:20 H2:CO2 gas mixture. […] Table 3: Methanogens

Methanosarcina barkeri = test: Growth/methane production of methanogen cultures; type: cell-based; conditions: H2 and methanol (100 mM), after 2 days, maintained over 12 days
Protocol: as §1

[1] = tested on: Methanobrevibacter smithii; test: Growth/methane production of methanogen cultures; type: cell-based; conditions: after 2 days, maintained over 12 days
Protocol: as §1

[2] = tested on: Methanothermobacter wolfeii; test: Growth/methane production of methanogen cultures; type: cell-based; conditions: after 2 days, maintained over 12 days
Protocol: as §1

[3] = tested on: Methanobacterium bryantii; test: Growth/methane production of methanogen cultures; type: cell-based; conditions: after 2 days, maintained over 12 days
Protocol: as §1

[4] = tested on: Methanosphaera stadtmanae; test: Growth/methane production of methanogen cultures; type: cell-based; conditions: H2 and methanol (100 mM), after 2 days, maintained over 12 days
Protocol: as §1

[5] = tested on: Methanobrevibacter millerae; test: Growth/methane production of methanogen cultures; type: cell-based; conditions: after 2 days, maintained over 12 days
Protocol: as §1

MCR (MCR-I) [6] = target: T1, MCR (MCR-I) (Methanothermobacter marburgensis, UniProt P11558+P11560+P11562); type: biochemical, M. marburgensis; conditions: for Methane reduction: 0.1 µM 3-NOP vs no inhibitor
T1 sequence (P11558 2-550 limits assumed): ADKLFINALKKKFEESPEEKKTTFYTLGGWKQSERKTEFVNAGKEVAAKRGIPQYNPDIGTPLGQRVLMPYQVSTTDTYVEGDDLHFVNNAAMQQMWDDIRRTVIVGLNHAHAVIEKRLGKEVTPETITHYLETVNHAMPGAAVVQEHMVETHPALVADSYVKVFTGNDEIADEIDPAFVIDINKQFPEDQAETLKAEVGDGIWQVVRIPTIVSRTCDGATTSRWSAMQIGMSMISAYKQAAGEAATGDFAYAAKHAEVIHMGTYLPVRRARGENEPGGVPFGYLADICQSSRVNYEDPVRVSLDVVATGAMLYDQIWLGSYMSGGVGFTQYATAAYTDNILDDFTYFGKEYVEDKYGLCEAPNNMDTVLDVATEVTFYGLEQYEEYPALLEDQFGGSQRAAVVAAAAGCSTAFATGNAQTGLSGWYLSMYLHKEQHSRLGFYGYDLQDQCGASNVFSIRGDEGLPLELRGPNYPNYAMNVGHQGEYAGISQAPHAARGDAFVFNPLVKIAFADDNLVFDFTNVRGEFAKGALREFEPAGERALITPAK
T1 sequence (P11560 2-443 limits assumed): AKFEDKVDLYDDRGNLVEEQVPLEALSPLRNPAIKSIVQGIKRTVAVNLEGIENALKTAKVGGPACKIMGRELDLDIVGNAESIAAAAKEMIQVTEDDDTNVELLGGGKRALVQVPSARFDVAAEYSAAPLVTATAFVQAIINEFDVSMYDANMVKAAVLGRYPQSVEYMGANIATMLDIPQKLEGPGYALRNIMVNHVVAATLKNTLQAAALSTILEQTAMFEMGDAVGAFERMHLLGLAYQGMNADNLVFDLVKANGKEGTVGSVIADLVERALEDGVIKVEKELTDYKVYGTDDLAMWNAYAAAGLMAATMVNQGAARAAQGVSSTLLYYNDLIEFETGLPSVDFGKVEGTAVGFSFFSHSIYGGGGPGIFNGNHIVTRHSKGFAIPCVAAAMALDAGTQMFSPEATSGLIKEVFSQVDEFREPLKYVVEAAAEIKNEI
T1 sequence (P11562 2-249 limits assumed): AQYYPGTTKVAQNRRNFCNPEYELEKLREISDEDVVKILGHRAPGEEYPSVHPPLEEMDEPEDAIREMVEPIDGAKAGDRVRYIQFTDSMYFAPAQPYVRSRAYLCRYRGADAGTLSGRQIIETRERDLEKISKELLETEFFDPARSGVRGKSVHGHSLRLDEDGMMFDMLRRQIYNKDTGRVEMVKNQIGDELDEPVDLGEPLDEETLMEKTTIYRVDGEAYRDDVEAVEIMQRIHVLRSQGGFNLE

MCR (MCR-I) [7] = target: T1, MCR (MCR-I); type: biochemical, M. marburgensis; conditions: 15 min at room temperature

With `O=[N+]([O-])OCCCO` [3-NOP, 3-Nitrooxypropanol] the “lowest concentration of 3-NOP able to significantly decrease the growth/ methane production (>50%)” value (Methanomicrobium mobile) was 50 µM, the “lowest concentration of 3-NOP able to significantly decrease the growth/ methane production (>50%)” value (Methanosarcina barkeri) was 50 µM and the “lowest concentration of 3-NOP able to significantly decrease the growth/ methane production (>50%)” value [1] was 2.5 µM. The “lowest concentration of 3-NOP able to significantly decrease the growth/ methane production (>50%)” value [2] was under 1 µM, the “lowest concentration of 3-NOP able to significantly decrease the growth/ methane production (>50%)” value [3] was 1 µM and the “lowest concentration of 3-NOP able to significantly decrease the growth/ methane production (>50%)” value [4] was 5 µM. The “lowest concentration of 3-NOP able to significantly decrease the growth/ methane production (>50%)” value [5] was 2.5 µM, the “reduces the methane concentration and thus the MCR activity” value (MCR (MCR-I) [6]; 0.1 µM 3-NOP) was “about 50%” and the Methane reduction (MCR (MCR-I) [6]; 3min) was -28%. It also gave a Methane reduction (MCR (MCR-I) [6]; 6min) of -38%, a Methane reduction (MCR (MCR-I) [6]; 9min) of -47% and a Methane concentration (MCR (MCR-I) [6]; 0.1 µM 3-NOP, 3min, no inhibitor 0.095) of 0.068 µM. For the same compound, the Methane concentration (MCR (MCR-I) [6]; 0.1 µM 3-NOP, 6min, no inhibitor 0.132) was 0.082 µM, the Methane concentration (MCR (MCR-I) [6]; 0.1 µM 3-NOP, 9min, no inhibitor 0.163) was 0.086 µM and the “MCR activity was reduced” value (MCR (MCR-I) [7]; 10 µM of 3-NOP) was 50%. The “inhibition of the enzyme” value (MCR (MCR-I) [7]; > 30 µM of 3-NOP) was “almost complete inhibition”.
